In paper PMC8256334, “Simultaneous Determination of a Novel PD-L1 Inhibitor, IMMH-010, and Its Active Metabolite, YPD-29B, in Rat Biological Matrices by Polarity-Switching Liquid Chromatography-Tandem Mass Spectrometry: Application to ADME Studies” (Frontiers in Pharmacology, 2021):
Values joined by “and” are separate entries in the source; they are usually repeats but may differ in a detail not shown here. Equal values may be shown once. Read-outs that look alike come from different tables or passages of the source.

Columns and labels:
[1] = PK study in rats after single i.g. administration of IMMH-010 maleate; type: in vivo, Sprague-Dawley rats; details: for AUC(0-inf) / AUC(0-t) / Cmax / MRT last / MRT inf / Tmax / half-life: female, Sprague-Dawley, po; for MRT last: read-out: MRT(0-t); for MRT inf: read-out: MRT(0-∞); for Tmax: median (range); for half-life: rat, plasma
Excerpt: (§1) Female Sprague-Dawley rats (200 ± 20 g, Vital River, Beijing, China) were kept in standard environmental conditions. Rats were fasted overnight with free access to water and randomly assigned to different groups before the experiments. All animal protocols were approved by the Institute Animal Care and Welfare Committee of the Institute of Materia Medica, Chinese Academy of Medical Sciences and Peking Union Medical College.
IMMH-010 maleate was suspended in 0.5% sodium carboxymethyl cellulose. The rats were intragastrically (i.g.) administered IMMH-010 maleate at doses of 10, 30, and 100 mg/kg. Blood samples were withdrawn via the orbital plexus into heparinized tubes with NaF at 5, 15, and 30 min and 1, 2, 4, 6, 8, 12, 24, 36, and 48 h. Plasma was immediately prepared by centrifugation at 5,000 rpm for 10 min. All samples were stored at −20°C prior to analysis. The PK parameters of IMMH-010 and YPD-29B were calculated using the Linear Trapezoidal with Linear Interpolation method by WinNonlin software version 6.3 based on a noncompartmental model (Pharsight Corporation, Mountain View, United States ).

[2] = Excretion study in rats (urine and feces); type: in vivo, Sprague-Dawley rats; details: for excretion in feces, % Of administered dose / excretion in urine, % Of administered dose: i.g. IMMH-010 maleate 10 mg/kg, n = 5
Protocol: as §1
After i. g. administration of IMMH-010 maleate (10 mg/kg), rats were housed in separate metabolite cages to collect their urine and feces: 0–12, 12–24, 24–36, 36–48, and 48–72 h for urine and 0–24, 24–48, and 48–72 h for feces. Fecal samples were dried in air. Urine samples were stored at −20°C prior to analysis.

Stability in rat plasma = type: in vitro ADME; details: for Accuracy (RE, %) / Measured conc.: n = 5
Protocol: Plasma: IMMH-010 is an ester-containing compound. […] Therefore, heparin sodium and NaF were dissolved with 0.9% w/v sodium chloride to prepare a mixture of 0.5% heparin sodium and 500 mM NaF. All blood was withdrawn into EP tubes containing this mixture (1:9 v/v mixture:blood) followed by plasma separation. The plasma standards for IMMH-010 were prepared at 1, 2, 5, 10, 20, 80, 120 and 200 ng/ml, and those for YPD-29B were prepared at 2.5, 5, 10, 20, 50, 400, 600 and 1,000 ng/ml. QC samples were prepared at 1, 2, 40 and 160 ng/ml for IMMH-010 and 2.5, 5, 200 and 800 ng/ml for YPD-29B.
For short-term and long-term stability, plasma samples were kept at 4°C for 4 h and −20°C for 3 months, respectively. To evaluate freeze-thaw stability, samples were frozen at −20°C for 24 h and thawed at 4°C for three cycles. […] Stability assays of IMMH-010 and YPD-29B were performed at two QC levels (high and low QC) (n = 5).

[3] = rat plasma, single i.g. IMMH-010 maleate 10 mg/kg, mean ± SD, n = 5
[4] = rat plasma, single i.g. IMMH-010 maleate 30 mg/kg, mean ± SD, n = 5
[5] = rat plasma, single i.g. IMMH-010 maleate 100 mg/kg, mean ± SD, n = 5
[6] = prepared rat plasma samples, at 15°C in auto-sampler (24 h), spiked 2 ng/ml IMMH-010, 5 ng/ml YPD-29B
[7] = prepared rat plasma samples, at 15°C in auto-sampler (24 h), spiked 160 ng/ml IMMH-010, 800 ng/ml YPD-29B
[8] = prepared rat plasma samples, at 15°C in auto-sampler (48 h), spiked 2 ng/ml IMMH-010, 5 ng/ml YPD-29B
[9] = prepared rat plasma samples, at 15°C in auto-sampler (48 h), spiked 160 ng/ml IMMH-010, 800 ng/ml YPD-29B
[10] = rat plasma, 4°C (4 h), spiked 2 ng/ml IMMH-010, 5 ng/ml YPD-29B
[11] = rat plasma, 4°C (4 h), spiked 160 ng/ml IMMH-010, 800 ng/ml YPD-29B
[12] = rat plasma, stored at −20°C (3 months), spiked 2 ng/ml IMMH-010, 5 ng/ml YPD-29B
[13] = rat plasma, stored at −20°C (3 months), spiked 160 ng/ml IMMH-010, 800 ng/ml YPD-29B
[14] = rat plasma, three freeze–thaw cycles, spiked 2 ng/ml IMMH-010, 5 ng/ml YPD-29B
[15] = rat plasma, three freeze–thaw cycles, spiked 160 ng/ml IMMH-010, 800 ng/ml YPD-29B

## O=C(O)[C@H](CO)NCc1cc(Cl)c(OCc2cccc(-c3ccccc3)c2Br)cc1OCc1cccnc1 [YPD-29B]
[1]; [3]
  AUC(0-inf): 110 ± 46.6 ng·h/mL
  AUC(0-t): 94.3 ± 46.3 ng·h/mL
  Cmax: 63.7 ± 29.1 ng/mL
  MRT last: 1.5 ± 0.4 h
  MRT inf: 2.27 ± 0.96 h
[1]; rat plasma, single i.g. IMMH-010 maleate 10 mg/kg, n = 5
  Tmax: 0.5 h
[1]; [4]
  AUC(0-inf): 521 ± 114 ng·h/mL
  AUC(0-t): 503 ± 110 ng·h/mL
  Cmax: 268 ± 43 ng/mL
  MRT last: 1.55 ± 0.14 h
  MRT inf: 2.06 ± 0.55 h
[1]; rat plasma, single i.g. IMMH-010 maleate 30 mg/kg, n = 5
  Tmax: 0.5 h
[1]; [5]
  AUC(0-inf): 1640 ng·h/mL
  AUC(0-t): 1620 ng·h/mL
  Cmax: 569 ± 72 ng/mL
  MRT last: 2.88 ± 0.89 h
  MRT inf: 3.12 ± 0.87 h
[1]; rat plasma, single i.g. IMMH-010 maleate 100 mg/kg, n = 5
  Tmax: 1 h
[1]; 10 mg/kg, rat plasma, single i.g. IMMH-010 maleate 10 mg/kg, mean ± SD, n = 5, read-out: t1/2β (converted)
  half-life: 1.57 ± 1.08 h
[1]; 30 mg/kg, rat plasma, single i.g. IMMH-010 maleate 30 mg/kg, mean ± SD, n = 5, read-out: t1/2β (converted)
  half-life: 3.65 ± 2.77 h
[1]; 100 mg/kg, rat plasma, i.g. IMMH-010 maleate 10, 30 and 100 mg/kg, range over doses, read-out: average plasma elimination half-life (t1/2β)
  half-life: 1.57 to 3.65 h
[1]; 100 mg/kg, rat plasma, single i.g. IMMH-010 maleate 100 mg/kg, mean ± SD, n = 5, read-out: t1/2β (converted)
  half-life: 3.1 ± 1.76 h
[1]; rat plasma, dose range 10–100 mg/kg IMMH-010 maleate, oral
  dose dependence of AUC: proportional to the dose
[1]; rats, after oral administration of IMMH-010 maleate
  time postdose at which the metabolite could be detected in plasma: 5 min
[2]; time 24 h
  excretion in feces, % Of administered dose: 14.56 ± 8.45 % Of administered dose
  excretion in urine, % Of administered dose: 0.63 ± 0.15 % Of administered dose
[2]; time 48 h
  excretion in feces, % Of administered dose: 19.42 ± 6.85 % Of administered dose
  excretion in urine, % Of administered dose: 0.85 ± 0.36 % Of administered dose
[2]; time 72 h
  excretion in feces, % Of administered dose: 19.65 % Of administered dose and 19.65 ± 6.76 % Of administered dose
  excretion in urine, % Of administered dose: 1.17 % Of administered dose and 1.17 ± 0.91 % Of administered dose
[2]; urine and feces within 72 h, rats, oral IMMH-010 maleate
  share of the dose recovered in the urine and feces as this analyte: 20.82%
[2]; time 12 h
  excretion in urine, % Of administered dose: 0.52 ± 0.15 % Of administered dose
[2]; time 36 h
  excretion in urine, % Of administered dose: 0.71 ± 0.17 % Of administered dose
Stability in rat plasma; [6]
  Accuracy (RE, %): −1.6%
  Measured conc.: 4.92 ± 0.25 ng/mL
Stability in rat plasma; [7]
  Accuracy (RE, %): 5.6%
  Measured conc.: 845 ± 13 ng/mL
Stability in rat plasma; [8]
  Accuracy (RE, %): −12.2%
  Measured conc.: 4.39 ± 0.19 ng/mL
Stability in rat plasma; [9]
  Accuracy (RE, %): −1.1%
  Measured conc.: 791 ± 17 ng/mL
Stability in rat plasma; rat plasma: 4°C 4 h, −20°C 3 months, three freeze-thaw cycles, autosampler 10°C 48 h
  stability during the sample preparation, storage and analysis: stable
Stability in rat plasma; [10]
  Accuracy (RE, %): −4.8%
  Measured conc.: 4.76 ± 0.12 ng/mL
Stability in rat plasma; [11]
  Accuracy (RE, %): 4.0%
  Measured conc.: 832 ± 8 ng/mL
Stability in rat plasma; [12]
  Accuracy (RE, %): −2.6%
  Measured conc.: 4.87 ± 0.50 ng/mL
Stability in rat plasma; [13]
  Accuracy (RE, %): −6.5%
  Measured conc.: 748 ± 3 ng/mL
Stability in rat plasma; [14]
  Accuracy (RE, %): −6.2%
  Measured conc.: 4.69 ± 0.21 ng/mL
Stability in rat plasma; [15]
  Accuracy (RE, %): 3.9%
  Measured conc.: 831 ± 51 ng/mL
